In patent publication US9266834B2, “1, 4-disubstituted 3-cyano-pyridone derivatives and their use as positive allosteric modulators of MGLUR2-receptors” (JANSSEN PHARMACEUTICALS, INC., priority 2006, dated 2016):

target: T1, human mGluR2 receptor (Homo sapiens, UniProt Q14416); test: [35S]GTPγS binding assay (GTPγS-PAM): positive allosteric modulation in presence of glutamate at EC25, membranes from transfected CHO cells; type: biochemical; details: in presence of mGluR2 agonist glutamate at predetermined EC25 concentration, averages of duplicate values of 11-concentration response curves, read-out: GTPgS - hR2 PAM pEC50 (converted)
T1 construct: expressed in transfected cells; host or cells: CHO cells (membrane preparation)
T1 sequence (Q14416 19-872): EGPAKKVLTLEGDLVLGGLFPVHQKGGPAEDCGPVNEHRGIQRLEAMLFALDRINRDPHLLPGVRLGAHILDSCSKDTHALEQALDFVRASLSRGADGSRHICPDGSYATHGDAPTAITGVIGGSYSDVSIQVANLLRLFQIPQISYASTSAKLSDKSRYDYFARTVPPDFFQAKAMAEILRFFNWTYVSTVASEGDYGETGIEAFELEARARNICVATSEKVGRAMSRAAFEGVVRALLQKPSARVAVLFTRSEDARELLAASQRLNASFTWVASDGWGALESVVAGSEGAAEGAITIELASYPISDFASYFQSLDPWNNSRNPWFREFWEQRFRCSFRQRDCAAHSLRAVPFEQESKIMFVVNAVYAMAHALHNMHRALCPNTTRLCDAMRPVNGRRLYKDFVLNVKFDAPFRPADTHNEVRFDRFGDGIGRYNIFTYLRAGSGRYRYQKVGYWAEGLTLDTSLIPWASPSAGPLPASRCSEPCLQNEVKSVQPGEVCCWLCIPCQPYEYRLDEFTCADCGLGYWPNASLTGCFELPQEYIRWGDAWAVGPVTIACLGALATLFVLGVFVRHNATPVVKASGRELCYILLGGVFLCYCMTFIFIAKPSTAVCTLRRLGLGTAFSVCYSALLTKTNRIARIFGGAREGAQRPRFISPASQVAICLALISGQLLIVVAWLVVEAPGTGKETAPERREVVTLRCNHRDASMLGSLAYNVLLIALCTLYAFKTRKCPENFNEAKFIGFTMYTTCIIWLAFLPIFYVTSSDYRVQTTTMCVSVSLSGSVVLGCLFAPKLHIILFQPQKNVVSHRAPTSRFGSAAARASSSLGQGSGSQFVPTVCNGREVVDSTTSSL
Excerpt: The compounds provided in the present invention are positive allosteric modulators of mGluR2. These compounds appear to potentiate glutamate responses by binding to an allosteric site other than the glutamate binding site. The response of mGluR2 to a concentration of glutamate is increased when compounds of Formula (I) are present. Compounds of Formula (I) are expected to have their effect substantially at mGluR2 by virtue of their ability to enhance the function of the receptor. The behaviour of positive allosteric modulators tested at mGluR2 using the [^35S]GTPγS binding assay method described below and which is suitable for the identification of such compounds, and more particularly the compounds according to Formula (I), are shown in Table 4.
[^35S]GTPγS Binding Assay
The [^35S]GTPγS binding is a functional membrane-based assay used to study G-protein coupled receptor (GPCR) function whereby incorporation of a non-hydrolysable form of GTP, [^35S]GTPγS (guanosine 5′-triphosphate, labelled with […] ^35S), is measured. The G-protein o subunit catalyzes the exchange of guanosine 5′-diphosphate (GDP) by guanosine triphosphate (GTP) and on activation of the GPCR by an agonist, [^35S]GTPγS, becomes incorporated and cannot be cleaved to continue the exchange cycle (Harper (1998) Current Protocols in Pharmacology 2.6.1-10, John Wiley & Sons, Inc.). […] Here we describe the use of the [^35S]GTPγS binding assay using membranes from cells transfected with the human mGluR2 receptor and adapted from Schaffhauser et al ((2003) Molecular Pharmacology 4:798-810) for the detection of the positive allosteric modulation (PAM) properties of the compounds of this invention.
CHO-cells were cultured to pre-confluence and stimulated with 5 mM butyrate for 24 hours, prior to washing in PBS, and then collection by scraping in homogenisation buffer (50 mM Tris-HCl buffer, pH 7.4, 4° C.). Cell lysates were homogenized briefly (15 s) using an ultra-turrax homogenizer. The homogenate was centrifuged at 23 500×g for 10 minutes and the supernatant discarded. The pellet was resuspended in 5 mM Tris-HCl, pH 7.4 and centrifuged again (30 000×g, 20 min, 4° C.). The final pellet was resuspended in 50 mM HEPES, pH 7.4 and stored at −80° C. in appropriate aliquots before use. Protein concentration was determined by the Bradford method (Bio-Rad, USA) with bovine serum albumin as standard.
Measurement of mGluR2 positive allosteric modulators in membranes containing human mGluR2 was performed using frozen membranes that were thawed and briefly homogenised prior to pre-incubation in 96-well microplates (15 μg/assay well, 30 minutes, 30° C.) in assay buffer (50 mM HEPES pH 7.4, 100 mM NaCl, 3 mM MgCl2, 50 μM GDP, 10 μg/ml saponin,) with increasing concentrations of positive allosteric modulator (from 0.3 nM to 50 μM) and either a minimal pre-determined concentration of glutamate (PAM assay), or no added glutamate. For the PAM assay, membranes were pre-incubated with glutamate at EC25 concentration, i.e. a concentration that gives 25% of the maximal response glutamate, and is in accordance to published data (Pin et al. (1999) Eur. J. Pharmacol. 375:277-294). After addition of [^35S]GTPγS (0.1 nM, f.c.) to achieve a total reaction volume of 200 μl, microplates were shaken briefly and further incubated to allow [^35S]GTPγS incorporation on activation (30 minutes, 30° C.). The reaction was stopped by rapid vacuum filtration over glass-fibre filter plates (Unifilter 96-well GF/B filter plates, Perkin-Elmer, Downers Grove, USA) microplate using a 96-well plate cell harvester (Filtermate, Perkin-Elmer, USA), and then by washing three times with 300 μl of ice-cold wash buffer (Na2PO4.2H2O 10 mM, NaH2PO4.H2O 10 mM, pH=7.4). Filters were then air-dried, and 40 μl of liquid scintillation cocktail (Microscint-O) was added to each well, and membrane-bound [^35S]GTPγS was measured in a 96-well scintillation plate reader (Top-Count, Perkin-Elmer, USA). […]

SMILES	EC50 [nM]
CCCCn1ccc(N2CCN(c3cnc(N4CCOCC4)nc3)CC2)c(C#N)c1=O [2-009]	6310
CC(C)CCn1ccc(N2CCN(c3ccccc3)CC2)c(C#N)c1=O [2-011]	501
COc1ccc(N2CCN(c3ccn(CCC(C)C)c(=O)c3C#N)CC2)cc1 [2-013]	794
CC(C)CCn1ccc(N2CCN(Cc3cccc(C(F)(F)F)c3)CC2)c(C#N)c1=O [2-014]	794
CC(C)CCn1ccc(N2CCN(Cc3ccc(F)c(F)c3)CC2)c(C#N)c1=O [2-015]	1260
CC(C)CCn1ccc(N2CCN(Cc3ccc4c(c3)OCO4)CC2)c(C#N)c1=O [2-016]	631
CC(C)CCn1ccc(N2CCN(CCc3ccccc3)CC2)c(C#N)c1=O [2-017]	200
CC(C)CCn1ccc(N2CCN(C/C=C/c3ccccc3)CC2)c(C#N)c1=O [2-018]	2510
CC(C)CCn1ccc(N2CCN(CCOc3ccc(F)cc3)CC2)c(C#N)c1=O [2-019]	6310
CC(C)CCn1ccc(N2CCN(CCOc3cccc(C(F)(F)F)c3)CC2)c(C#N)c1=O [2-020]	794
CC(C)CCn1ccc(N2CCN(Cc3ccccc3)CC2C)c(C#N)c1=O (stereo not drawn) [2-021]	1260
CC(C)CCn1ccc(N2CCN(c3ccccn3)CC2)c(C#N)c1=O [2-024]	2000
Cc1ccc(N2CCN(c3ccn(CCC(C)C)c(=O)c3C#N)CC2)nc1 [2-025]	794
CC(C)CCn1ccc(N2CCN(c3ccc(C#N)cn3)CC2)c(C#N)c1=O [2-027]	6310
CC(C)CCn1ccc(N2CCN(c3ncccn3)CC2)c(C#N)c1=O [2-028]	794
CC(C)CCn1ccc(N2CCN(c3ccc(-c4ccccc4)nn3)CC2)c(C#N)c1=O [2-033]	2000

SMILES	EC50 [nM]
Cc1nnc(N2CCN(c3ccn(CCC(C)C)c(=O)c3C#N)CC2)c2ccccc12 [2-034]	3980
C[C@@H]1CN(c2ccn(CC3CC3)c(=O)c2C#N)C[C@H](C)N1c1ncccn1 [2-041]	3160
N#Cc1c(N2CCN(Cc3ccccc3)CC2)ccn(Cc2ccc(OC(F)(F)F)cc2)c1=O [2-042]	631
CC1CN(Cc2cc(F)cc(F)c2)CCN1c1ccn(Cc2ccc(OC(F)(F)F)cc2)c(=O)c1C#N (stereo not drawn) [2-045]	501
N#Cc1c(N2CCN(Cc3ccncc3)CC2)ccn(Cc2ccc(OC(F)(F)F)cc2)c1=O [2-047]	5010
N#Cc1c(N2CCN(Cc3ccccc3)CC2)ccn(Cc2ccc(F)cc2)c1=O [2-049]	1580
N#Cc1c(N2CCN(Cc3cccc(F)c3)CC2)ccn(Cc2ccc(F)cc2)c1=O [2-050]	2510
N#Cc1c(N2CCN(Cc3cc(F)cc(F)c3)CC2)ccn(Cc2ccc(F)cc2)c1=O [2-052]	3980
N#Cc1c(N2CCN(Cc3ccccc3)CC2)ccn(CCOc2ccccc2)c1=O [2-053]	631
N#Cc1c(N2CCN(Cc3ccccc3)CC2)ccn(CCOCc2ccccc2)c1=O [2-054]	5010
N#Cc1c(N2CCN(c3ccccn3)CC2)ccn(Cc2ccc(F)cc2)c1=O [2-055]	3980
CCCCn1ccc(OC2CCN(Cc3cccc(C(F)(F)F)c3)CC2)c(C#N)c1=O [3-002]	1260
CC(C)CCn1ccc(OC2CCN(Cc3cccc(C(F)(F)F)c3)CC2)c(C#N)c1=O [3-008]	316
N#Cc1c(OC2CCN(Cc3cccc(C(F)(F)F)c3)CC2)ccn(CC2CC2)c1=O [3-012]	1260
CC(C)CCn1ccc(C2CCN(Cc3cccc(C(F)(F)F)c3)CC2)c(C#N)c1=O [3-014]	200

The next lines start with the values.

EC50 [nM]	SMILES
2000	CCCCn1ccc(N2CCC(c3ccccn3)CC2)c(C#N)c1=O [4-001]
3980	CCCCn1ccc(N2CCC(c3cccnc3)CC2)c(C#N)c1=O [4-002]
501	CCCCn1ccc(N2CCC(Oc3ccccn3)CC2)c(C#N)c1=O [4-005]
501	CCCCn1ccc(N2CCC(COc3ccccn3)CC2)c(C#N)c1=O [4-006]
1580	CCCCn1ccc(N2CCC(COc3cccnc3)CC2)c(C#N)c1=O [4-007]
1580	CCCCn1ccc(N2CCC(CCOc3cccnc3)CC2)c(C#N)c1=O [4-008]
501	CCCCn1ccc(N2CCC(Oc3ccc(C#N)cc3)CC2)c(C#N)c1=O [4-009]
2000	CC(C)CCn1ccc(N2CCC(C(F)(F)F)CC2)c(C#N)c1=O [4-010]
2000	CC(C)CCn1ccc(N2CCCC(c3ccccc3)C2)c(C#N)c1=O (stereo not drawn) [4-013]
63.1	CC(C)CCn1ccc(N2CCC(c3ccccc3)CC2)c(C#N)c1=O [4-014]
100	CC(C)CCn1ccc(N2CCC(Cc3ccccc3)CC2)c(C#N)c1=O [4-015]
126	Cc1ccc(OC2CCN(c3ccn(CCC(C)C)c(=O)c3C#N)CC2)cc1 [4-017]
501	CC(C)CCn1ccc(N2CCC(Oc3ccc(F)cc3)CC2)c(C#N)c1=O [4-018]
126	CC(C)CCn1ccc(N2CCC(OCc3cccc(C(F)(F)F)c3)CC2)c(C#N)c1=O [4-020]
200	CCOc1ccccc1OC1CCN(c2ccn(CCC(C)C)c(=O)c2C#N)CC1 [4-021]
50.1	CC(C)CCn1ccc(N2CCC(OCc3ccc(OC(F)(F)F)cc3)CC2)c(C#N)c1=O [4-022]
5010	CC(C)CCn1ccc(N2CCCC(Nc3ccccc3)C2)c(C#N)c1=O (stereo not drawn) [4-023]
6310	CC(C)CCn1ccc(N2CCC(NCc3cccc(C(F)(F)F)c3)CC2)c(C#N)c1=O [4-024]

EC50 [nM]	SMILES
1580	CC(C)CCn1ccc(N2CCC(N(C)Cc3ccccc3)CC2)c(C#N)c1=O [4-026]
100	CC(C)CCn1ccc(N2CCC(N(C)Cc3cccc(C(F)(F)F)c3)CC2)c(C#N)c1=O [4-028]
1260	CC(C)CCn1ccc(N2CCC(CN(C)Cc3ccc(F)cc3)CC2)c(C#N)c1=O [4-030]
398	CC(C)CCn1ccc(N2CCC(N(C)CCc3cccc(C(F)(F)F)c3)CC2)c(C#N)c1=O [4-032]
100	CC(C)CCn1ccc(N2CCC(n3ccc4ccccc43)CC2)c(C#N)c1=O [4-035]
126	CC(C)CCn1ccc(N2CCC(c3noc(-c4ccccc4)n3)CC2)c(C#N)c1=O [4-041]
2510	CC(C)CCn1ccc(N2CCC(c3ccccc3)(N3CCOCC3)CC2)c(C#N)c1=O [4-044]
126	COC1(c2ccccc2)CCN(c2ccn(CCC(C)C)c(=O)c2C#N)CC1 [4-045]
2000	N#Cc1c(N2CCC(c3ccccc3)CC2)ccn(CC2CCCCO2)c1=O (stereo not drawn) [4-048]
501	N#Cc1c(N2CCC(N3CCc4ccccc4C3)CC2)ccn(Cc2ccc(OC(F)(F)F)cc2)c1=O [4-051]
631	Cc1cc(OCC2CCN(c3ccn(Cc4ccc(OC(F)(F)F)cc4)c(=O)c3C#N)CC2)ccn1 [4-052]
3160	Cc1ccc(C2(O)CCN(c3ccn(Cc4ccc(OC(F)(F)F)cc4)c(=O)c3C#N)CC2)cn1 [4-053]
5010	CN(Cc1ccccc1)C1CCN(c2ccn(Cc3ccc(F)cc3)c(=O)c2C#N)CC1 [4-056]
251	CN(Cc1cccc(C(F)(F)F)c1)C1CCN(c2ccn(Cc3ccc(F)cc3)c(=O)c2C#N)CC1 [4-058]
5010	N#Cc1c(N2CCC(O)(c3cccnc3)CC2)ccn(Cc2ccc(OC(F)(F)F)cc2)c1=O [4-063]
31.6	CN(Cc1cccc(C(F)(F)F)c1)C1CCN(c2ccn(CCOc3ccccc3)c(=O)c2C#N)CC1 [4-065]
31.6	N#Cc1c(N2CCC(c3ccccc3)CC2)ccn(CCOc2ccccc2)c1=O [4-066]
